Data on 16 compounds can be found in patent publication US12577206B2 (BRISTOL-MYERS SQUIBB COMPANY, priority 2020, dated 2026).

Usually EC50 stands for the concentration giving half of the maximal effect.

For one experiment, the target named is T1, human FPR1 (Homo sapiens, UniProt P21462).
T1 sequence (P21462 1-350): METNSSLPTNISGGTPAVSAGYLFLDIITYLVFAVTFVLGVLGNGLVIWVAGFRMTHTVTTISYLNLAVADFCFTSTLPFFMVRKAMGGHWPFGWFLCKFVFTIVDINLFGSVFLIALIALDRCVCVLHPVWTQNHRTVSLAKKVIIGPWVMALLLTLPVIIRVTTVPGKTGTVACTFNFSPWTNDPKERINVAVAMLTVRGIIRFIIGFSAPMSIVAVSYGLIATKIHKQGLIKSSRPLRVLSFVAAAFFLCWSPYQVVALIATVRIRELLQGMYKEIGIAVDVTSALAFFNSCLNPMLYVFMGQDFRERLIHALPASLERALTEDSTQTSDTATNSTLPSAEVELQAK
The experiment in a line: FPR1 cyclic adenosine monophosphate (cAMP) assay. Conditions: CHO cells overexpressing human FPR1; forskolin 10 μM; inhibition of cAMP production; HTRF; read-out: hFPR1 cAMP2 EC50. In kind it is cell-based. From the text:
(§1) N-formyl peptide receptors (FPRs) are a family of chemo attractant receptors that facilitate leukocyte response during inflammation. FPRs belong to the seven-transmembrane G protein-coupled receptor superfamily and are linked to inhibitory G-proteins (Gi). Three family members (FPR1, FPR2 and FPR3) have been identified in humans and are predominantly found in myeloid cells with varied distribution and have also been reported in multiple organs and tissues. After agonist binding, the FPRs activate a multitude of physiological pathways, such as intra cellular signaling transduction, Ca^2+ mobilization and transcription. The family interacts with a diverse set of ligands that includes proteins, polypeptides and fatty acid metabolites which activate both pro-inflammatory and pro-resolution downstream responses. FPR2 and FPR1 Cyclic Adenosine Monophosphate (cAMP) Assays were used to measure the in vitro activity of the compounds disclosed in this application.
(§2) FPR2 and FPR1 Cyclic Adenosine Monophosphate (cAMP) Assays. A mixture of forskolin (5 μM final for FPR2 or 10 μM final for FPR1) and IBMX (200 μM final) were added to 384-well Proxiplates (Perkin-Elmer) pre-dotted with test compounds in DMSO (1% final) at final concentrations in the range of 0.020 nM to 100 μM. Chinese Hamster Ovary cells (CHO) overexpressing human FPR1 or human FPR2 receptors were cultured in F-12 (Ham's) medium supplemented with 10% qualified FBS, 250 μg/mL zeocin and 300 μg/mL hygromycin (Life Technologies). Reactions were initiated by adding 2,000 human FPR2 cells per well or 4,000 human FPR1 cells per well in Dulbecco's PBS (with calcium and magnesium) (Life Technologies) supplemented with 0.1% BSA (Perkin-Elmer). The reaction mixtures were incubated for 30 min at rt. The level of intracellular cAMP was determined using the HTRF HiRange cAMP assay reagent kit (Cisbio) according to manufacturer's instruction. Solutions of cryptate conjugated anti-cAMP and d2 flurorophore-labeled cAMP were made in a supplied lysis buffer separately. Upon completion of the reaction, the cells were lysed with equal volume of the d2-cAMP solution and anti-cAMP solution. […] The potency and activity of a compound to inhibit cAMP production was then determined by fitting to a 4-parametric logistic equation from a plot of cAMP level versus compound concentrations.

The next experiment addresses T2, human FPR2 (Homo sapiens, UniProt P25090).
T2 sequence (P25090 1-351): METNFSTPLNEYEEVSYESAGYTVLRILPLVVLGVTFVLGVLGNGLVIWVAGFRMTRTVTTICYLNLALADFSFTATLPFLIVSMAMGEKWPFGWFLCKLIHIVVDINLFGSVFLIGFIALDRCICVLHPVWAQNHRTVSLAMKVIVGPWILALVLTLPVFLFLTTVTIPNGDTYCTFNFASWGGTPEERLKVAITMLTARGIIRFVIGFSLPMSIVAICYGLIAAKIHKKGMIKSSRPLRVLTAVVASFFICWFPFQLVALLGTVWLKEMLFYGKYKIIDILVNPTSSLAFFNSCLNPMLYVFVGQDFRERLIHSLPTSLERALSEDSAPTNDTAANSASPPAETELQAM
The experiment in a line: FPR2 cyclic adenosine monophosphate (cAMP) assay. In kind it is cell-based. Conditions: CHO cells overexpressing human FPR2; forskolin 5 μM; inhibition of cAMP production; HTRF; read-out: hFPR2 cAMP2 EC50.
Description: as §1, §2
On the technique in general: Changes in cAMP serve as a functional read-out for many G protein-coupled receptors.

`COc1cc(F)c(-c2c(NC(=O)c3ccc(OC(F)F)cc3)c(=O)n(-c3cc(Cl)cc(N4C[C@H]5C[C@@H]4CN5)c3)n2C)c(F)c1` [Example 149, N-(2-{3-chloro-5-[(1R,4R)-2,5-diazabicyclo[2.2.1]heptan-2-yl]phenyl}-5-(2,6-difluoro-4-methoxyphenyl)-1-methyl-3-oxo-2,3-dihydro-1H-pyrazol-4-yl)-4-(difluoromethoxy)benzamide]: the EC50 on human FPR1 was 4700 nM; on human FPR2, 6 nM.

With `COc1cc(F)c(-c2c(NC(=O)c3ccc(OC(F)F)cc3)c(=O)n(-c3nccc(N4CCN(C)CC4)c3C(F)(F)F)n2C)c(F)c1` [Example 224, N-[5-(2,6-difluoro-4-methoxyphenyl)-1-methyl-2-[4-(4-methylpiperazin-1-yl)-3-(trifluoromethyl)pyridin-2-yl]-3-oxo-2,3-dihydro-1H-pyrazol-4-yl]-4-(difluoromethoxy)benzamide], the EC50 at human FPR1 is more than 5000 nM; at human FPR2 it was 15 nM.

Turning to `COCCN1CCN(c2cccc(-n3c(=O)c(NC(=O)c4ccc(OC(F)F)cc4)c(-c4c(F)cc(OC)cc4F)n3C)n2)CC1` [Example 212, N-[5-(2,6-difluoro-4-methoxyphenyl)-2-{6-[4-(2-methoxyethyl)piperazin-1-yl]pyridin-2-yl}-1-methyl-3-oxo-2,3-dihydro-1H-pyrazol-4-yl]-4-(difluoromethoxy)benzamide], the EC50 is more than 10000 nM on human FPR1 and 9 nM on human FPR2.

Turning to `COc1cc(F)c(-c2c(NC(=O)c3ccc(OC(F)F)cc3)c(=O)n(-c3ccccc3C#N)n2C)c(F)c1` [Example 173, N-[2-(2-cyanophenyl)-5-(2,6-difluoro-4-methoxyphenyl)-1-methyl-3-oxo-2,3-dihydro-1H-pyrazol-4-yl]-4-(difluoromethoxy)benzamide], the figures for the EC50 on human FPR1 and on human FPR2 were more than 10000 nM and 20 nM, respectively.

Regarding `COc1cncc(-n2c(=O)c(NC(=O)c3ccc(OC(F)F)cc3)c(-c3c(F)cc(OC)cc3F)n2C)c1` [Example 129, N-[5-(2,6-difluoro-4-methoxyphenyl)-2-(5-methoxypyridin-3-yl)-1-methyl-3-oxo-2,3-dihydro-1H-pyrazol-4-yl]-4-(difluoromethoxy)benzamide], the results for the EC50 at human FPR1 and on human FPR2 were 2200 nM and 24 nM, respectively.

Consider `[2H]C([2H])([2H])Oc1cc(F)c(-c2c(NC(=O)c3ccc(OC(F)F)cc3)c(=O)n(-c3cccc(C(C)(C)O)n3)n2C)c(F)c1` [Example 404, N-(5-(2,6-difluoro-4-(methoxy-d3)phenyl)-2-(6-(2-hydroxypropan-2-yl)pyridin-2-yl)-1-methyl-3-oxo-2,3-dihydro-1H-pyrazol-4-yl)-4-(difluoromethoxy)benzamide], for which the values for the EC50 on human FPR1 and on human FPR2 were 1500 nM and 7 nM, respectively.

As for `COc1cc(F)c(-c2c(NC(=O)c3ccc(OC(F)F)cc3)c(=O)n(-c3nc(NCC(C)(C)C(N)=O)ccc3C(F)(F)F)n2C)c(F)c1` [Example 279, N-(2-{6-[(2-carbamoyl-2,2-dimethylethyl)amino]-3-(trifluoromethyl)pyridin-2-yl}-5-(2,6-difluoro-4-methoxyphenyl)-1-methyl-3-oxo-2,3-dihydro-1H-pyrazol-4-yl)-4-(difluoromethoxy)benzamide], the results for the EC50 at human FPR1 and on human FPR2 were more than 10000 nM and 2 nM, respectively.

For `COc1cc(F)c(-c2c(NC(=O)c3ccc(OC(F)F)cc3)c(=O)n(-c3nc(NCCO)ccc3C(F)(F)F)n2C)c(F)c1` [Example 225, N-[5-(2,6-difluoro-4-methoxyphenyl)-2-{6-[(2-hydroxyethyl)amino]-3-(trifluoromethyl)pyridin-2-yl}-1-methyl-3-oxo-2,3-dihydro-1H-pyrazol-4-yl]-4-(difluoromethoxy)benzamide], the EC50 at human FPR1 is more than 10000 nM; at human FPR2, 3 nM.

In the case of `COc1cc(F)c(-c2c(NC(=O)c3ccc(OC(F)F)cc3)c(=O)n(-c3nc(N4CCC(C)(O)C4)ccc3C(F)(F)F)n2C)c(F)c1` (centres unmarked) [Example 282, N-[5-(2,6-difluoro-4-methoxyphenyl)-2-[6-(3-hydroxy-3-methylpyrrolidin-1-yl)-3-(trifluoromethyl)pyridin-2-yl]-1-methyl-3-oxo-2,3-dihydro-1H-pyrazol-4-yl]-4-(difluoromethoxy)benzamide], the 50% effective concentration (EC50) is 2100 nM at human FPR1 and 2 nM at human FPR2.

`COc1cc(F)c(-c2c(NC(=O)c3ccc(OC(F)F)cc3)c(=O)n(-c3nc(C(F)(F)F)ccc3OCCO)n2C)c(F)c1` [Example 372, N-(5-(2,6-Difluoro-4-methoxyphenyl)-2-(3-(2-hydroxyethoxy)-6-(trifluoromethyl)pyridin-2-yl)-1-methyl-3-oxo-2,3-dihydro-1H-pyrazol-4-yl)-4-(difluoromethoxy)benzamide]: the EC50 on human FPR1 was more than 10000 nM; on human FPR2, 6 nM.

As to `COc1cc(F)c(-c2c(NC(=O)c3ccc(OC(F)(F)F)cc3)c(=O)n(-c3ccc(C)cn3)n2C)c(F)c1` [Example 50, N-[5-(2,6-difluoro-4-methoxyphenyl)-1-methyl-2-(5-methylpyridin-2-yl)-3-oxo-2,3-dihydro-1H-pyrazol-4-yl]-4-(trifluoromethoxy)benzamide], the results for the EC50 at human FPR1 and on human FPR2 were 1300 nM and 18 nM, respectively.

As to `CNc1ccc(C(F)(F)F)c(-n2c(=O)c(NC(=O)c3ccc(OC(F)F)cc3)c(-c3c(F)cc(OC)cc3F)n2C)n1` [Example 227, N-[5-(2,6-difluoro-4-methoxyphenyl)-1-methyl-2-[6-(methylamino)-3-(trifluoromethyl)pyridin-2-yl]-3-oxo-2,3-dihydro-1H-pyrazol-4-yl]-4-(difluoromethoxy)benzamide], the 50% effective concentration (EC50) was more than 5000 nM on human FPR1 and 3 nM at human FPR2.

`COc1ccc(-c2c(NC(=O)c3ccc(OC(F)F)cc3)c(=O)n(-c3ncccc3Cl)n2C)cc1F` [Example 294, N-[2-(3-chloropyridin-2-yl)-5-(3-fluoro-4-methoxyphenyl)-1-methyl-3-oxo-2,3-dihydro-1H-pyrazol-4-yl]-4-(difluoromethoxy)benzamide]: the EC50 at human FPR1 was 1400 nM; at human FPR2 it was 32 nM.

In the case of `COc1cc(F)c(-c2c(NC(=O)c3ccc(OC(F)F)cc3)c(=O)n(-c3cccc(N4CCN(C)CC4)n3)n2C)c(F)c1` [Example 83, N-[5-(2,6-difluoro-4-methoxyphenyl)-1-methyl-2-[6-(4-methylpiperazin-1-yl)pyridin-2-yl]-3-oxo-2,3-dihydro-1H-pyrazol-4-yl]-4-(difluoromethoxy)benzamide], the EC50 was more than 10000 nM on human FPR1 and 2 nM on human FPR2.

On to `COc1cc(F)c(-c2c(NC(=O)c3ccc(OC(F)(F)F)cn3)c(=O)n(-c3ccccc3)n2C)c(F)c1` [Example 24, N-[5-(2,6-difluoro-4-methoxyphenyl)-1-methyl-3-oxo-2-phenyl-2,3-dihydro-1H-pyrazol-4-yl]-5-(trifluoromethoxy)pyridine-2-carboxamide], for which the EC50 is more than 10000 nM at human FPR1 and 220 nM on human FPR2.

In the case of `COc1cc(F)c(-c2c(NC(=O)c3ccc(OC(F)F)cc3)c(=O)n(-c3cc(OCC4(C)COC4)cc(C(F)(F)F)n3)n2C)c(F)c1` [Example 349, N-(5-(2,6-Difluoro-4-methoxyphenyl)-1-methyl-2-(4-((3-methyloxetan-3-yl)methoxy)-6-(trifluoromethyl)pyridin-2-yl)-3-oxo-2,3-dihydro-1H-pyrazol-4-yl)-4-(difluoromethoxy)benzamide], the EC50 at human FPR1 was determined as 94 nM; at human FPR2 it was 22 nM.
